Where two headings read alike, the source gives them in different places.
Biological target: T1, BCL6 (Homo sapiens, UniProt P41182)
T1 construct: endogenous in cells; host or cells: T47D breast cancer epithelial cells
Experiment: Immunofluorescence protocol for high content imaging of BCL6 (degradation) in T47D cells, 3 days compound treatment
Format: cell-based
Details: for DC50: read-out: Mean DC50 (nM)* category; for Dmax: read-out: Mean Dmax (%)** category
How it was run: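 T47D cells in RPMI1640-10% FBS were treated with an 11-point 3-fold dilution series (final top 0.1 or 1 μM) for 3 days at 37° C. After PFA fixation and Triton permeabilization, cells were immunostained with rabbit anti-BCL6 (1:300, overnight 4° C), Alexa-488 secondary, CellMask-647 and Hoechst, then imaged at 10×, 4 fields/well.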

[1] = T47D cells, 3 days compound treatment

SMILES | DC50 [1] [nM] | Dmax [1] [%] | Dmax (T47D) [%] | DC50 [nM]
CNC(=O)COc1cc2cc(Nc3nc(N4CCC5(CCN(CC6(F)CCN(c7cccc8c7CN(C7CCC(=O)NC7=O)C8=O)CC6)CC5)CC4)ncc3Cl)ccc2n(C(C)C)c1=O (stereo not drawn) [Compound 95, 2-{[6-({5-chloro-2-[9-({1-[2-(2,6-dioxopiperidin-3-yl)-1-oxo-2,3-dihydro-1H-isoindol-4-yl]-4-fluoropiperidin-4-yl}methyl)-3,9-diazaspiro [5.5]undecan-3-yl]pyrimidin-4-yl}amino)-2-oxo-1-(propan-2-yl)-1,2-dihydroquinolin-3-yl]oxy}-N-methylacetamide] | < 10 | 50 to 70 | – | –
CNC(=O)COc1cc2cc(Nc3nc(N4CCC(CN5CCN(c6ccc7c(c6F)CN(C6CCC(=O)NC6=O)C7=O)CC5)CC4)ncc3Cl)ccc2n(C(C)C)c1=O (stereo not drawn) [Compound 322, 2-{[6-({5-chloro-2-[4-({4-[2-(2,6-dioxopiperidin-3-yl)-4-fluoro-1-oxo-2,3-dihydro-1H-isoindol-5-yl]piperazin-1-yl}methyl)piperidin-1-yl]pyrimidin-4-yl}amino)-2-oxo-1-(propan-2-yl)-1,2-dihydroquinolin-3-yl]oxy}-N-methylacetamide] | – | – | 50 to 70 | < 10
CNC(=O)COc1cc2cc(Nc3nc(N4CCN(CC5CCC6(CC5)CN(c5cccc7c5CN(C5CCC(=O)NC5=O)C7=O)C6)CC4)ncc3Cl)ccc2n(C(C)C)c1=O (stereo not drawn) [Compound 313, 2-{[6-({5-chloro-2-[4-({2-[2-(2,6-dioxopiperidin-3-yl)-1-oxo-2,3-dihydro-1H-isoindol-4-yl]-2-azaspiro[3.5]nonan-7-yl}methyl)piperazin-1-yl]pyrimidin-4-yl}amino)-2-oxo-1-(propan-2-yl)-1,2-dihydroquinolin-3-yl]oxy}-N-methylacetamide] | – | – | 50 to 70 | < 10
CNC(=O)COc1cc2cc(Nc3nc(N4CCC(O[C@H]5C[C@H](N6CC[C@@H](c7ccc8c(c7F)CN(C7CCC(=O)NC7=O)C8=O)C(C)(C)C6)C5)CC4)ncc3Cl)ccc2n(C(C)C)c1=O (stereo partly drawn) [Compound 430, 2-({6-[(5-chloro-2-{4-[(1r,3r)-3-[(4R)-4-[2-(2,6-dioxopiperidin-3-yl)-4-fluoro-1-oxo-2,3-dihydro-1H-isoindol-5-yl]-3,3-dimethylpiperidin-1-yl]cyclobutoxy]piperidin-1-yl}pyrimidin-4-yl)amino]-2-oxo-1-(propan-2-yl)-1,2-dihydroquinolin-3-yl}oxy)-N-methylacetamide] | – | – | ≥ 70 | < 10
CNC(=O)COc1cc2cc(Nc3nc(N4CCC5(CCN(CC6CCN(c7ccc8c(c7)CN(C7CCC(=O)NC7=O)C8=O)CC6)C5)C4)ncc3Cl)ccc2n(C(C)C)c1=O (stereo not drawn) [Compound 3, 2-{[6-({5-chloro-2-[7-({1-[2-(2,6-dioxopiperidin-3-yl)-1-oxo-2,3-dihydro-1H-isoindol-5-yl]piperidin-4-yl}methyl)-2,7-diazaspiro[4.4]nonan-2-yl]pyrimidin-4-yl}amino)-2-oxo-1-(propan-2-yl)-1,2-dihydroquinolin-3-yl]oxy}-N-methylacetamide] | < 10 | 50 to 70 | – | –
CNC(=O)COc1cc2cc(Nc3nc(N4CCN(CC5CCC6(CC5)CN(c5cc(OC)cc7c5C(=O)N(C5CCC(=O)NC5=O)C7=O)C6)CC4)ncc3Cl)ccc2n(C(C)C)c1=O (stereo not drawn) [Compound 10, 2-{[6-({5-chloro-2-[4-({2-[2-(2,6-dioxopiperidin-3-yl)-6-methoxy-1,3-dioxo-2,3-dihydro-1H-isoindol-4-yl]-2-azaspiro[3.5]nonan-7-yl}methyl)piperazin-1-yl]pyrimidin-4-yl}amino)-2-oxo-1-(propan-2-yl)-1,2-dihydroquinolin-3-yl]oxy}-N-methylacetamide] | 10 to 50 | 50 to 70 | – | –

From patent US11986532B2 (Arvinas Operations, Inc., priority 2021, dated 2024)
